These are literature values, as cited in patent US20090264421A1 (priority 2007, published 2009).

One data set concerns the target T1, TrxR1 (Homo sapiens, UniProt Q16881).
T1 sequence (Q16881 1-499 isoform Q16881-5): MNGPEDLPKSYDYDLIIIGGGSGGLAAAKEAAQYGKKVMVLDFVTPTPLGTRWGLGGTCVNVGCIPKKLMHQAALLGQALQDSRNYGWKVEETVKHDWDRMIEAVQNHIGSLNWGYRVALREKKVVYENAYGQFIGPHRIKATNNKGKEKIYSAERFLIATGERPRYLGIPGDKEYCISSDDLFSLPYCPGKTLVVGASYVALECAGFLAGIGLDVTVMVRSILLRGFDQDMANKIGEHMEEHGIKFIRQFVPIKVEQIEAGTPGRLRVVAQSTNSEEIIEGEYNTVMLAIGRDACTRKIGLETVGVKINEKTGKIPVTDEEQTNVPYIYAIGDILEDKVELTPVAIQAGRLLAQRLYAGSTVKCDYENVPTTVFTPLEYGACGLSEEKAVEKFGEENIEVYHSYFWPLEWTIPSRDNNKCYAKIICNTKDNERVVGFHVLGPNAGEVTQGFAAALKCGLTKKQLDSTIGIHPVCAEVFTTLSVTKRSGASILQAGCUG
The conditions noted are these: cited from earlier work.

Another data set concerns the target T2, glutaredoxin (Homo sapiens, UniProt P35754).
T2 sequence (P35754 1-106): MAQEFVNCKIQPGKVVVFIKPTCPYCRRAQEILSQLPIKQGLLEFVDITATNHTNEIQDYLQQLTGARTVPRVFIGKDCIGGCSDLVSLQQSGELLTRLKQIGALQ
The conditions noted are these: cited from earlier work.

For the molecule `COc1c(Cl)cc2c(c1OC)N(C)[C@@H]1N3C(=O)[C@@]4(C)SS[C@@]3(C(=O)N4C)[C@H](O)[C@]21O` [sporidesmin], the TrxR1 inhibition result at TrxR1 is reported as “not to significantly inhibit TrxR1”. Also, at glutaredoxin, the glutaredoxin inhibition result is listed as “inhibitor of glutaredoxin”.
